Measurements published in patent US20260365628A1, “SUBSTITUTED 3,4-DIHYDROQUINOLINONE INHIBITORS OF TSHR” (Septerna, Inc., priority 2022, published 2026).

What follows are molecules tested against T1, hTSHR (Homo sapiens, UniProt P16473) (assay: hTSHR TR-FRET cAMP Assay (inhibition of M22-stimulated cAMP production)). Details: Expi293F Inducible cells stably expressing hTSHR; cAMP HTRF; stimulated with EC80 of anti-TSHR antibody M22; 15 min compound preincubation, 30 min at 37° C.; read-out: Activity (IC50 bins).
T1 construct: expressed in transfected cells
T1 sequence (P16473 21-764): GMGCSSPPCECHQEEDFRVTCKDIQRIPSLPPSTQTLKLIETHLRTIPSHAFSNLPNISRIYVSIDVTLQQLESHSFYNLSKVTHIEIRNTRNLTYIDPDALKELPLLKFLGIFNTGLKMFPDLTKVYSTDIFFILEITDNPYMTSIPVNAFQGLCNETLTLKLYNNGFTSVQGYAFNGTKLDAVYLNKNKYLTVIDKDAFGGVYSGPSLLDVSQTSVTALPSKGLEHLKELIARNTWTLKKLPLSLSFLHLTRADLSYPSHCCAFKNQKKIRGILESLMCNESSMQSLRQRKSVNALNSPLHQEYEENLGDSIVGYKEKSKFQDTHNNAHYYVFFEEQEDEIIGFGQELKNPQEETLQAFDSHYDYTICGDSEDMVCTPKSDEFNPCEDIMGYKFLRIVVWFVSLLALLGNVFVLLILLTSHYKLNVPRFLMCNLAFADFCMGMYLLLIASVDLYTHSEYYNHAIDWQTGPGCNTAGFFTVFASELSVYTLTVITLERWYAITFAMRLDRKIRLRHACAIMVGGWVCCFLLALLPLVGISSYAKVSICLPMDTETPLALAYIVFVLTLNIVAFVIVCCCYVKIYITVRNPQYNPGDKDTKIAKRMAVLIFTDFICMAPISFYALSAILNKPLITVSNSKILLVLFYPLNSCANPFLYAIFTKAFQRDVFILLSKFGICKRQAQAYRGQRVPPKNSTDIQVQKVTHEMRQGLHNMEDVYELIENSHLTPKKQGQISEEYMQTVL
Format: cell-based
How it was run: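 Readout was a cAMP HTRF ratio of 655/620 nm after lysis, scaled between the EC80 M22 signal (0% inhibition) and no-agonist vehicle (100%). Frozen induced Expi293F-hTSHR cells saw test compounds (0.5% DMSO) for 15 min at 37 °C before 30 min of M22 stimulation at EC80.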
In the case of `C[C@H]1Oc2nc(NC(=O)NC(C)(C)C)c(C(F)(F)F)cc2N(Cc2cccc(C(F)F)c2)C1=O` [Example 374, (R)-1-(tert-butyl)-3-(1-(3-(difluoromethyl)benzyl)-3-methyl-2-oxo-7-(trifluoromethyl)-2,3-dihydro-1H-pyrido[2,3-b][1,4]oxazin-6-yl)urea], the IC50 is reported as under 100 nM.
`CC(C)(C)NC(=O)Nc1ccc2c(c1)CCC(=O)N2Cc1cc(C(F)(F)F)ccc1C#N` [Example 55, 3-tert-butyl-1-(1-{[2-cyano-5-(trifluoromethyl)phenyl]methyl}-2-oxo-3,4-dihydroquinolin-6-yl) urea] was tested, and the IC50 was under 100 nM.
In the case of `Cn1ccc(CN2C(=O)CCc3cc(NC(=O)NC(C)(C)C)ccc32)n1` [Example 4, 1-(tert-butyl)-3-(1-((1-methyl-1H-pyrazol-3-yl)methyl)-2-oxo-1,2,3,4-tetrahydroquinolin-6-yl)urea], the IC50 is reported as over 1000 nM.
With `C[C@H]1Oc2cc(NC(=O)NC(C)(C)C)ccc2N(Cc2ccnc(C(F)(F)F)n2)C1=O` [Example 167, (R)-1-(tert-butyl)-3-(2-methyl-3-oxo-4-((2-(trifluoro-methyl)pyrimidin-4-yl)methyl)-3,4-dihydro-2H-benzo [b][1,4]oxazin-7-yl)urea] the IC50 was 100 to 1000 nM.
`C[C@H]1Oc2cc(NC(=O)NC(C)(C)C)ccc2N(Cc2cc(F)ccc2F)C1=O` [Example 177, (R)-1-(tert-butyl)-3-(4-(2,5-difluoro-benzyl)-2-methyl-3-oxo-3,4-dihydro-2H-benzo [b][1,4]oxazin-7-yl)urea] gave an IC50 of under 100 nM.
`C[C@H]1Oc2cc(NC(=O)N[C@H]3C[C@@H](C(F)(F)F)C3)ccc2N([C@@H](C)c2cccc(OC(F)(F)F)c2)C1=O` [Example 325, 1-((R)-2-methyl-3-oxo-4-((S)-1-(3-(trifluoromethoxy)phenyl)ethyl)-3,4-dihydro-2H-benzo[b][1,4]oxazin-7-yl)-3-((1s,3S)-3-(trifluoromethyl)cyclobutyl)urea] showed an IC50 of 100 to 1000 nM.
`CC(C)(C)NC(=O)Nc1ccc2c(c1)CCC(=O)N2Cc1cc(C(F)(F)F)ccc1F` [Example 39, 1-(tert-butyl)-3-(1-(2-fluoro-5-(trifluoromethyl)benzyl)-2-oxo-1,2,3,4-tetrahydroquinolin-6-yl)urea] was tested, and the IC50 was under 100 nM.
For `Cc1cccc([C@H](C)n2c(=O)cnc3cc(NC(=O)NC(C)(C)C)ccc32)c1` [Example 132, (S)-1-(tert-butyl)-3-(2-oxo-1-(1-(m-tolyl)ethyl)-1,2-dihydroquinoxalin-6-yl)urea], the IC50 was 100 to 1000 nM.
`CC[C@@H]1Oc2cc(NC(=O)NC(C)(C)C)ccc2N(Cc2ccccc2)C1=O` [Example 278, (S)-1-(4-benzyl-2-ethyl-3-oxo-3,4-dihydro-2H-benzo[b][1,4]oxazin-7-yl)-3-(tert-butyl)urea] showed an IC50 of over 1000 nM.
For `C[C@H]1Oc2cc(NC(=O)NC3(C(F)(F)F)CCC3)ccc2N(Cc2cccc(C(F)(F)F)n2)C1=O` [Example 232, (R)-1-(2-methyl-3-oxo-4-((6-(trifluoromethyl)pyridin-2-yl)methyl)-3,4-dihydro-2H-benzo[b][1,4]oxazin-7-yl)-3-(1-(trifluoromethyl)cyclobutyl)urea], the IC50 was 100 to 1000 nM.
With `CC(C)Oc1cccc(CN2C(=O)COc3cc(NC(=O)NC(C)(C)C)ccc32)c1` [Example 75, 1-(tert-butyl)-3-(4-(3-isopropoxybenzyl)-3-oxo-3,4-dihydro-2H-benzo[b][1,4]oxa-zin-7-yl)urea] the IC50 was 100 to 1000 nM.
Molecule `C[C@@H](c1cccc(OC(F)(F)F)c1)n1c(=O)cnc2cc(NC(=O)NCC(C)(C)C)ccc21` [Example 201, (S)-1-neopentyl-3-(2-oxo-1-(1-(3-(trifluoromethoxy)phenyl)ethyl)-1,2-dihydroquinoxalin-6-yl)urea] has an IC50 of 100 to 1000 nM.
With `CC(C)(C)NC(=O)Nc1ccc2c(c1)ncc(=O)n2Cc1cccc(CC(F)(F)F)c1` [Example 94, 1-(tert-butyl)-3-(2-oxo-1-(3-(2,2,2-trifluoro-ethyl)benzyl)-1,2-dihydro-quinoxalin-6-yl)urea] the IC50 was 100 to 1000 nM.
With `CC(C)(C)NC(=O)Nc1ccc2c(c1)OCC(=O)N2Cc1cccc([C@@H](O)C(F)(F)F)c1` [Example 78, (R)-1-(tert-butyl)-3-(3-oxo-4-(3-(2,2,2-trifluoro-1-hydroxyethyl)ben-zyl)-3,4-dihydro-2H-benzo[b][1,4]oxa-zin-7-yl)urea] the IC50 was 100 to 1000 nM.
Work on `CC(c1cccc(C(F)(F)F)c1)N1C(=O)N(C)Cc2cc(NC(=O)NC(C)(C)C)ccc21` (stereo not drawn) [Example 271, 1-(tert-butyl)-3-(3-methyl-2-oxo-1-(1-(3-(trifluoromethyl)phenyl)ethyl)-1,2,3,4-tetrahydroquinazolin-6-yl)urea] yielded an IC50 of over 1000 nM.
With `C[C@H]1Oc2nc(NC(=O)NC(C)(C)C)c(C#N)cc2N(Cc2ccccc2)C1=O` [Example 362, 1-[(3R)-1-benzyl-7-cyano-3-methyl-2-oxo-3H-pyrido[2,3-b][1,4]oxazin-6-yl]-3-tert-butylurea] the IC50 was 100 to 1000 nM.
With `C[C@@H](c1cccc(C(C)(C)C)c1)n1c(=O)cnc2cc(NC(=O)NC(C)(C)C)ccc21` [Example 138, (S)-1-(tert-butyl)-3-(1-(1-(3-(tert-butyl)phenyl)ethyl)-2-oxo-1,2-dihydroquinoxalin-6-yl)urea] the IC50 was 100 to 1000 nM.
For `C[C@@H](c1cccc(CCCC(F)(F)F)c1)n1c(=O)cnc2cc(NC(=O)NC(C)(C)C)ccc21` [Example 108, (S)-1-(tert-butyl)-3-(2-oxo-1-(1-(3-(4,4,4-trifluorobutyl)phenyl)ethyl)-1,2-dihydroquinoxalin-6-yl)urea], the IC50 was 100 to 1000 nM.
Work on `C[C@@H](c1cccc(OC(F)(F)F)c1)n1c(=O)cnc2cc(NC(=O)OC3CCCC3)ccc21` [Example 359, cyclopentyl (S)-(2-oxo-1-(1-(3-(trifluoromethoxy)phenyl)ethyl)-1,2-dihydroquinoxalin-6-yl)carbamate] yielded an IC50 of under 100 nM.
`C[C@@H](c1cccc(Cl)c1)n1c(=O)cnc2cc(NC(=O)NC(C)(C)C)ccc21` [Example 131, (S)-1-(tert-butyl)-3-(1-(1-(3-chlorophenyl)ethyl)-2-oxo-1,2-dihydroquinoxalin-6-yl)urea] showed an IC50 of under 100 nM.
`C[C@@H](c1cccc(OC(F)(F)F)c1)n1c(=O)cnc2cc(NC(=O)NC3(C)CC(F)(F)C3)ccc21` [Example 221, (S)-1-(3,3-difluoro-1-methylcyclobuty 1)-3-(2-oxo-1-(1-(3-(trifluoromethoxy)phenyl)ethyl)-1,2-dihydroquinoxalin-6-yl)urea] showed an IC50 of 100 to 1000 nM.
With `CC(C)(C)NC(=O)Nc1ccc2c(c1)CNC(=O)N2Cc1ccccc1` [Example 302, 1-(1-benzyl-2-oxo-1,2,3,4-tetrahydroquinazolin-6-yl)-3-(tert-butyl)urea] the IC50 was over 1000 nM.
In the case of `CC(c1nc(Cl)ccc1Cl)n1c(=O)cnc2cc(NC(=O)NC(C)(C)C)ccc21` (stereo not drawn) [Example 254, 1-(tert-butyl)-3-(1-(1-(3,6-dichloropyridin-2-yl)ethyl)-2-oxo-1,2-dihydro-quinoxalin-6-yl)urea], the IC50 is reported as 100 to 1000 nM.
Molecule `C[C@@H](c1cccc(N2CCCCC2)c1)n1c(=O)cnc2cc(NC(=O)NC(C)(C)C)ccc21` [Example 127, (S)-1-(tert-butyl)-3-(2-oxo-1-(1-(3-(piperidin-1-yl)phenyl)ethyl)-1,2-dihydroquinoxalin-6-yl)urea] has an IC50 of 100 to 1000 nM.
`CC(C)(NC(=O)Nc1ccc2c(c1)ncc(=O)n2Cc1ccccc1)C(F)(F)F` [Example 198, 1-(1-benzyl-2-oxo-1,2-dihydroquinoxalin-6-yl)-3-(1,1,1-trifluoro-2-methylpropan-2-yl)urea] showed an IC50 of 100 to 1000 nM.
`C[C@H]1Oc2cc(NC(=O)NC3CCC(F)(F)CC3)ccc2N(Cc2cccc(C(F)(F)F)n2)C1=O` [Example 235, (R)-1-(4,4-difluorocyclohexyl)-3-(2-methyl-3-oxo-4-((6-(trifluoromethyl)pyridin-2-yl)methyl)-3,4-dihydro-2H-benzo[b][1,4]oxazin-7-yl)urea] gave an IC50 of 100 to 1000 nM.
`C[C@H]1Oc2cc(NC(=O)N[C@H]3C[C@H](C(F)(F)F)C3)ccc2N([C@@H](C)c2cccc(OC(F)(F)F)c2)C1=O` [Example 324, 1-((R)-2-methyl-3-oxo-4-((S)-1-(3-(trifluoromethoxy)phenyl)ethyl)-3,4-dihydro-2H-benzo[b][1,4]oxazin-7-yl)-3-((1r,3R)-3-(trifluoromethyl)cyclobutyl)urea] was tested, and the IC50 was 100 to 1000 nM.
`CC(C)(C)NC(=O)Nc1ccc2c(c1)C(C)(C)CC(=O)N2Cc1ccccc1` [Example 10, 1-(1-benzyl-4,4-dimethyl-2-oxo-1,2,3,4-tetrahydroquinolin-6-yl)-3-(tert-butyl)urea] showed an IC50 of over 1000 nM.
With `Cc1ccc(C#N)c(CN2C(=O)[C@@H](C)Oc3cc(NC(=O)NC(C)(C)C)ccc32)c1` [Example 87, (R)-1-(tert-butyl)-3-(4-(2-cyano-5-methylbenzyl)-2-methyl-3-oxo-3,4-dihydro-2H-benzo[b][1,4]oxazin-7-yl)urea] the IC50 was over 1000 nM.
In the case of `CC(C)(C)CC(=O)Nc1ccc2c(c1)CCC(=O)N2Cc1ccccc1` [Example 285, N-(1-benzyl-2-oxo-3,4-dihydroquinolin-6-yl)-3,3-dimethylbutanamide], the IC50 is reported as over 1000 nM.
`C[C@@H](c1cccc(OC(F)(F)F)c1)n1c(=O)cnc2cc(NC(=O)NC3CCC3)ccc21` [Example 205, (S)-1-cyclobutyl-3-(2-oxo-1-(1-(3-(trifluoromethoxy)phenyl)ethyl)-1,2-dihydroquinoxalin-6-yl)urea] showed an IC50 of 100 to 1000 nM.
`C[C@@H](c1cc(Cl)c(F)cc1F)n1c(=O)cnc2cc(NC(=O)NC(C)(C)C)ccc21` [Example 149, (S)-1-(tert-butyl)-3-(1-(1-(5-chloro-2,4-difluorophenyl)ethyl)-2-oxo-1,2-dihydroquinoxalin-6-yl)urea] was tested, and the IC50 was 100 to 1000 nM.
For `C[C@@H](c1cccc(OCC(F)(F)F)c1)n1c(=O)cnc2cc(NC(=O)NC(C)(C)C)ccc21` [Example 313, (S)-1-(tert-butyl)-3-(2-oxo-1-(1-(3-(2,2,2-trifluoroethoxy)phenyl)ethyl)-1,2-dihydroquinoxalin-6-yl)urea], the IC50 was over 1000 nM.
